Experimental data published in US6043283A, “Tyramine compounds and their neuronal effects” (priority 1997, dated 2000).
pEC50, pIC50: −log10 of the molar value. Entries after “also recorded” stand apart in the source; their conditions may differ. Like-named read-outs stand apart in the source and are kept apart here.

Legend:
[1] = test system: quinolinic acid (QUIN); experiment: protection of neurons against quinolinic acid; type: cell-based; details: QUIN (100 μM in FIG. 13)
From the text: FIG. 32 is a graph showing the specificity of tyramine compounds to NTox. […]

[2] = test system: NTox; experiment: protection of neurons against isolated NTox applied directly; type: cell-based; details: isolated NTox; FIGS. 13, 32
From the text: FIG. 32 is a graph showing the specificity of tyramine compounds to NTox. […].
Initial studies to characterize the neuroprotective effect of tyramine compounds employed microglia-neuron co-culture assays in the presence of Aβ or isolated senile plaques. Inhibition of neuron killing in […]--inhibition of microglial activation by Aβ or plaques; inhibition of NTox production and release by microglia; or inhibition of action of NTox upon neurons. […] Effective doses in the low nmolar range show the tyramine compounds to be very potent agents compared with low μmolar range of other neuroprotective drugs under development for neurological disorders.

[3] = test system: NTox released by Aβ1-42-stimulated microglia (neuron killing); experiment: cells; type: cell-based, rat
From the text: . Briefly, hippocampal cells obtained from embryonic stage 18 rat fetuses were dispersed mechanically in the presence of 0.125% trypsin and plated onto poly-L-lysine coated glass coverslips in 24 well plates at 250,000 cells per well (resulting in adhering cell densities of about 1250 cells per mm^2) in chemically-defined N2 culture media containing 5% fetal bovine serum. Gradual reduction of serum began on day 10 in vitro with daily 1:1 volume replacements with chemically-defined media, until a final concentration of 0.6% serum was achieved. […]; see FIG. 18). In order to eliminate microglia, cultures were exposed to saporin (sap; a ribosome-inactivating protein; Davis and Wiley, 1989) coupled to acetylated LDL (ac-LDL) at a concentration of 10 μg/ml for 12 hours. […] Cultures depleted of microglia were then exposed to test substances in the presence or absence of exogenous microglia (100,000 cells per culture). […]. Controls included cultures without saporin-treatment, cultures without test substances, and cultures with test substances but lacking microglia.
(§1) On day 14 of culture, immediately following saporin treatment, test substances were added to the hippocampal cultures. Synthetic peptide were supplied as 1 mM stock solutions in 0.1 M phosphate buffered saline, pH 7.2, stored for at least 1 week at 4° C. before use. After 72 hours incubation, the cultures were fixed in 4% paraformaldehyde at room temperature for 18 hours and immuno-stained by overnight incubation with a mixture of anti-neurofilament antibodies (NF; SMI-311, 1:600; Stemberger Monoclonals, Inc.) plus anti-MAP-2 (Boehringer Mannheim, 184959; 1:600) at 4° C. in the presence of 2% horse serum and 0.3% triton X-100 to delineate both neuronal cell bodies and neurites. Astroglia were visualized using sheep anti-glial fibrillary acidic protein (GFAP, Sigma) as described by Giulian et al., 1989. Finally, to label all cell nuclei, the coverslips were exposed to 0.01% bisbenzimide (Hoechst 33258; Sigma) in PBS, pH 6.9, and rinsed in distilled water and mounted in glycerin. Immuno-labeled cells per field and nuclei per field were scored at 200X magnification using fluorescence microscopy. Data were expressed as % mean survival expressed in terms of parallel untreated control cultures after scoring at least 20 randomly selected fields for each of 3 coverslips.
The procedures described above and by Giulian et al, 1996, provided for the identification of tyramine compounds as therapeutic agents for neurodegenerative diseases or disorders including, for example, Alzheimer's disease. Cells from the brain of fetal rats were grown in tissue cultures. Microglial populations within the cultures were controlled following the method described in Example 5 above. Known amounts of Aβ peptides coupled to microspheres were added to the culture. The Aβ spheres stimulated the microglia to release NTox, which in turn destroyed the neurons. The neurons in the cultures were monitored for survival by immuno-staining.
Generally, drug assays involve the addition of known concentrations of a test agent over a range of concentrations. After 72 hours, the experiment is stopped and the neurons are identified by immuno-staining. The data is expressed as % neuronal survival […]. Dose response curves are then used to estimate Effective Dose50 % (ED50) of neuroprotective agents. […].
In this experiment, about 65% of the neurons were destroyed by the Aβ-stimulated microglia. […] Other tyramine compounds, including tyrosine esters, were neuroprotective (FIG. 30).
Following the methods described herein, numerous compounds were examined to determine their neuroprotective activity. […]

[4] = test system: Aβ1-42-stimulated microglia; type: cell-based, rat; details: for blocking of Aβ1-42 induced microglial neurotoxicity by peptides: 10 μmoles/liter peptide, 1 μmole/liter Aβ1-42; for pIC50: read-out: ED50 (blocking of Aβ1-42 induced neurotoxicity), FIG. 16B
From the text: (§2) Briefly, hippocampal cells obtained from embryonic stage 18 rat fetuses were dispersed mechanically in the presence of 0.125% trypsin and plated onto poly-L-lysine coated glass coverslips in 24 well plates at 250,000 cells per well (resulting in adhering cell densities of about 1250 cells per mm^2) in chemically-defined N2 culture media containing 5% fetal bovine serum. Gradual reduction of serum began on day 10 in vitro with daily 1:1 volume replacements with chemically-defined media, until a final concentration of 0.6% serum was achieved. […] In order to eliminate microglia, cultures were exposed to saporin (sap; a ribosome-inactivating protein; Davis and Wiley, 1989) coupled to acetylated LDL (ac-LDL) at a concentration of 10 μg/ml for 12 hours. […] Cultures depleted of microglia were then exposed to test substances in the presence or absence of exogenous microglia (100,000 cells per culture). […] Controls included cultures without saporin-treatment, cultures without test substances, and cultures with test substances but lacking microglia.
as §1

[5] = test system: rat microglia; experiment: binding of Aβ-coupled microspheres to microglia; details: 4 hours at 37° C. (72 h in FIG. 23)
[6] = test system: reactive microglia in rat neocortex; experiment: brain inflammatory response after infusion into neocortex of adult rat; type: in vivo; details: 0.5 nmoles Aβ1-42, co-infusion of 1.0 nmole peptide; 5 days
[7] = test system: microglia; experiment: inhibition of SpheresAβ1-42 binding to microglia; parameters: species or system rat; details: for inhibition of SpheresAβ1-42 binding by peptides: 10 μmoles/l, 4 hours, 37° C.; for SpheresAβ1-42 binding after enzymatic treatment of microglia: trypsin 5000 units/ml, heparinase 0.01 units/ml, chondroitinase ABC 0.02 units/ml
Protocol: (§3) Spheresmal-BSA (which bind to scavenger receptors) or SpheresAβ1-42 were incubated with microglia for 4 hours following pre-treatment of cells with trypsin (5000 units/ml at 37° C. for 60 min followed by inactivation with soybean trypsin inhibitor), with heparinase (heparin lyase EC 4.2.2.7; two consecutive treatments each of 0.01 units/ml for 60 min), or with chondroitinase ABC (chondroitin ABC lyase EC 4.3.3.4; two consecutive treatments each of 0.02 units/ml for 60 min). […] Microglia mixed with hippocampal neurons were treated with combinations of β-D-xyloside (1 mm), heparinase (0.02 units/ml), or chondroitinase (0.04 units/ml) and then exposed to plaques.
Each well then received 250,000 SpheresAβ1-42 or Spheresmal-BSA in the presence or absence of Aβ peptides, GAGs, or scavenger receptor ligands. Binding assays were carried out at 37° C. for 4 hours after which coverslips were dipped 10 times in phosphate buffer and fixed with 4% buffered paraformaldehyde. Microsphere adherence to cells was scored at 200 magnification with phase/fluorescence microscopy. Data, expressed as % inhibition of sphere binding, was calculated from total number of spheres per field noted for control cultures receiving spheres only. Values are based upon at least 3 coverslips from 2 independent experiments. […] Washed spheres were resuspended in 0.2 M borate buffer (pH 8.5) in the presence of 300 μg Aβ or 400 μg BSA in 6% DMSO. After overnight mixing at room temperature, the spheres were washed extensively and blocked by 1 M glycine (pH 8.0) for 30 minutes.

[8] = test system: rat microglia / hippocampal neurons; details: for induction of neurotoxic microglia / neuron killing: rat microglia, mostly 1 μmole/l
[9] = test system: hippocampal neurons; type: cell-based, rat; details: absence of microglia
From the text: as §2, §1

[10] = type: physicochemical; details: chemically defined culture media, 37° C.; Table 2
From the text: Solubility of peptides is described for chemicallydefined culture media a […]

[11] = test system: rat microglia; type: binding; details: 6 hours, 37° C.
Protocol: Synthetic Aβ peptides were linked to Sepharose beads (Pharmacia) in coupling buffer (0.1 M NaHCO3, 0.5 M NaCl, pH 8.3) containing 20% DMSO. This solution was combined with an appropriate volume of CNBr-activated Sepharose 4B (10 mg protein per ml of bead; Pharmacia protocol) and mixed overnight on a platform mixer at room temperature. Remaining active groups on the beads were blocked by 1.0 M glycine and excess uncoupled peptides removed from this bead-peptide complex by washing with three cycles of alternating pH (0.1 M acetate buffer, pH 4.0, followed by 0.1 M Tris-HCL buffer, pH 8.0, each buffer containing 0.5 M NaCl). Coupled beads (10^4 per ml) were placed in 35 mm culture dishes covered with 250,000 adhering microglia at 37° C. in 1.5 ml N2 medium in accordance with the procedure of Giulian et al., 1995a. The numbers of microglia which detached from the plate and bound to coupled beads were determined at the end of a 6 hour incubation period by inverted phase microscopy with 100 beads scored from each of three sister cultures. Glycine and bovine serum albumin (BSA) coupled beads were used as controls.

[12] = test system: human microglia; experiment: induction of neuron-killing human microglia; type: cell-based; details: 1 μmole/liter synthetic peptides
[13] = test system: human microglia; experiment: nitrite/nitrate production, human microglia; type: cell-based
Protocol: Nitrites and nitrates, stable byproducts of nitric oxide synthetase (NOS) served as markers for nitric oxide (NO) synthesis (Ignarro, 1990). […]; for 24 to 72 hours incubated in the presence of neuritic/core plaques or Aβ peptides) were measured by the Griess method set forth by Beckman et al., 1990 against a standard curve ranging from 0.1 to 50.0 μM nitrate.

[14] = test system: plaque-stimulated microglia; experiment: blocking of plaque-induced microglial neurotoxicity; type: cell-based, rat; details: FIG. 16C
[15] = test system: scavenger receptor; experiment: inhibition of Spheresmal-BSA binding to microglia; parameters: species or system rat
Protocol: as §3
Each well then received 250,000 SpheresAβ1-42 or Spheresmal-BSA in the presence or absence of Aβ peptides, GAGs, or scavenger receptor ligands. Binding assays were carried out at 37° C. for 4 hours after which coverslips were dipped 10 times in phosphate buffer and fixed with 4% buffered paraformaldehyde. Microsphere adherence to cells was scored at 200 magnification with phase/fluorescence microscopy. Data, expressed as % inhibition of sphere binding, was calculated from total number of spheres per field noted for control cultures receiving spheres only. Values are based upon at least 3 coverslips from 2 independent experiments. […]

In the case of `NCCc1ccc(O)cc1` [tyramine], the “protection against quinolinic acid” value [1] was “did not occur with quinolinic acid”, the “inhibition of killing action of NTox applied to neurons” value [2] was “prevented neuronal injury” and the protective effect ([3]; 10 μM, 72 hours, FIG. 30) was “completely prevented neuron death”. The “neuroprotective activity (structure/function)” value ([3]; Example 14) was “enhance neuroprotective effects” and the pEC50 ([3]; Rattus norvegicus, Aβ-stimulated microglia, 72 h, FIG. 31, read-out: ED50 (neuroprotection)) was ~6.70.

For “Aβ1-5: Aβ peptide residues 1-5 (DAEFR; Amyloid-beta protein 42; UniProt P05067 672-676, looked up, fragment)”, the “blocking of Aβ1-42 induced microglial neurotoxicity by peptides” value [4] was “did not”, the “binding of peptide-coupled microspheres to microglia” value [5] was “did not” and the “local brain inflammatory response” value [6] was “did not alter inflammation”. The “inhibition of SpheresAβ1-42 binding by peptides” value [7] was “did not”.

With Aβ1-28: Aβ peptide residues 1-28 the “induction of neurotoxic microglia / neuron killing” value ([8]; listed as 1-28) was “inactive”, the “blocking of Aβ1-42 induced microglial neurotoxicity by peptides” value [4] was “blocked neurotoxin production” and the pIC50 [4] was 6.60. The “direct neurotoxicity without microglia” value [9] was “did not produce neurotoxicity”, the Solubility [10] was “soluble” and the “inhibition of SpheresAβ1-42 binding by peptides” value [7] was “effectively prevented”. For the same molecule, the “microglial adherence to coupled Sepharose beads” value [11] was “promoted cell binding; also recorded: promoted bead binding” and the “induction of neurotoxic human microglia” value [12] was “inactive”.

For “Aβ1-40: synthetic human β-amyloid peptide 1-40”, the “neuron killing, microglia separated from neurons (no contact)” value [8] was “stimulated microglia to destroy neurons”, the “ED50 (neuron killing via microglia)” value ([8]; 500 microglia per mm^2) was ~80 nM and the “induction of neurotoxic microglia / neuron killing” value ([8]; listed as A1-40) was “neuron killing could be induced”. The killing of neurons ([8]; rat, hippocampal neurons, 72 h, 1 µM) was 70-80%, the “binding of peptide-coupled microspheres to microglia” value [5] was “marked glial binding” and the Solubility [10] was “moderately soluble”. For the same molecule, the “release of nitrate or nitrite, human microglia” value [13] was “did not bring about release of nitrate or nitrites” and the “induction of neurotoxic human microglia” value [12] was “very potent inducers of neurotoxic human microglia; also recorded: stimulated release of neurotoxin from human microglia”.

With “Aβ13-16: residues His13, His14, Gln15, and Lys16 (the HHQK domain within Aβ) (Amyloid-beta protein 42; UniProt P05067 684-687, looked up, fragment)” the “blocking of Aβ1-42 induced microglial neurotoxicity by peptides” value [4] was “blocked neurotoxin production”, the “blocking of Aβ1-42 induced microglial neurotoxicity by peptides” value ([4]; listed as HHQK) was “one of the most potent plaque suppressor peptides identified” and the pIC50 [4] was ~7.52. The “local brain inflammatory response” value [6] was “blocks the interaction of Aβ1-42 with microglia in vivo and reduces the local brain inflammatory response; also recorded: markedly reduced” and the “blocking of plaque-induced microglial toxicity by peptides” value [14] was “blocked plaque-induced toxicity in vitro”.

With dextran sulfate the “inhibition of SpheresAβ1-42 binding by GAGs and scavenger receptor ligands” value ([7]; heparin sulfate 50 μg/ml, dextran sulfate 500 μg/ml, ac-LDL 200 μg/ml) was “only heparin sulfate blocked; also recorded: not similar compounds” and the “inhibition of Spheresmal-BSA binding by ligands” value ([15]; dextran sulfate 500 μg/ml, ac-LDL 200 μg/ml, Aβ1-16 10 μmole/l) was “blocked”.

For trypsin, the “SpheresAβ1-42 binding after enzymatic treatment of microglia” value [7] was “reduced by trypsin”, the “SpheresAβ1-42 binding after enzymatic treatment of microglia” value ([7]; listed as trypsinization) was “markedly reduced” and the “Spheresmal-BSA binding after enzymatic treatment of microglia” value ([15]; trypsin 5000 units/ml, chondroitinase ABC 0.02 units/ml) was “reduced by trypsin”.
